Reference: patent publication US20110269811A1, “INHIBITORS OF SEMICARBAZIDE-SENSITIVE AMINE OXIDASE (SSAO) AND VAP-1 MEDIATED ADHESION USEFUL FOR TREATMENT AND PREVENTION OF DISEASES” (priority 2006, published 2011)

Tested on: carrageenan-induced paw edema
Assay: Carrageenan-induced rat paw edema
Type: in vivo, Sprague Dawley rats
Details: therapeutic dosing: 3 mg/kg orally one hour after 0.375% carrageenan; FIG. 8
Excerpt: Carrageenan-induced paw edema has been extensively used in the evaluation of anti-inflammatory effects of various therapeutic agents and is a useful experimental system for assessing the efficacy of compounds to alleviate acute inflammation (Whiteley P E and Dalrymple S A, 1998. Models of inflammation: carrageenan-induced paw edema in the rat, in Current Protocols in Pharmacology. Enna S J, Williams M, Ferkany J W, Kenaki T, Porsolt R E and Sullivan J P, eds., pp 5.4.1-5.4.3, John Wiley & Sons, New York). The full development of the edema is neutrophil-dependent (Salvemini D. et al. (1996) Br. J. Pharmacol. 118: 829).
Female Sprague Dawley rats were used in groups of 8-12 and compounds of the invention were administered orally at up to 50 mg/kg 60 min prior to carrageenan exposure. The control group was administered orally an equal volume of vehicle (PBS). Edema in the paws was induced as previously described by injecting 50 μL of a 0.5% solution of carrageenan (Type IV Lambda, Sigma) in saline with a 27-G needle s.c. in the right foot pad. (See Whiteley P. E. and Dalrymple S. A. (1998), Models of inflammation: carrageenan-induced paw edema in the rat, in Current Protocols in Pharmacology, Enna S J, Williams M, Ferkany J W, Kenaki T, Porsolt R E and Sullivan J P, eds., pp 5.4.1-5.4.3, John Wiley & Sons, New York) The size of the tested foot of each animal was measured volumetrically with a plethysmometer immediately after injection of carrageenan solution and at various times up to 360 min after carrageenan induction.
Results of experiments with the compounds II-1-E, I-1-Z, and I-2-Z are shown in FIG. 1, FIG. 5, and FIG. 6, respectively.
Using the same procedure discussed above, the size of the foot of each animal was measured volumetrically before induction of edema, and at 1.5, 3, 4.5 and 6 h after the carrageenan injection. The absolute decreases in paw swelling at 6 h with 1, 10 and 50 mg/kg were 5±11%, 20±9% and 32±6% respectively. Statistical analyses were performed with repeated measures ANOVA followed by Dunnett's test for multiple comparisons.
Paw edema was induced in groups of eight Sprague Dawley rats by injecting 50 μL of a 0.375% solution of carrageenan X in saline, subcutaneously in the foot. After one hour animals were orally dosed once with PBS, compound I-1-Z at 50 mg/kg or with indomethacin at 3 mg/kg. The size of the paws were measured before induction of edema (baseline), and at 1.5, 3, 4.5 and 6 h after carrageenan injection. […] Statistical analyses were performed with repeated measures ANOVA followed by Dunnett's test for multiple comparisons.
Groups of eight Sprague Dawley rats were orally administered PBS, or 0.01, 0.1 or 1 mg/kg of compound I-1-Z. One hour later paw edema was induced in all animals by injecting 50 μL of a 0.5% solution of carrageenan X in saline, subcutaneously into the footpad. The size of the foot of each animal was measured volumetrically before induction of edema, and at 1.5, 3, 4.5 and 6 h after the carrageenan injection. The absolute decreases in paw swelling at 6 h with 0.1 and 1 mg/kg were 34±8 and 29±8% respectively. Statistical analyses were performed with repeated measures ANOVA followed by Dunnett's test for multiple comparisons.

COc1ccc2c(c1)c(CC(=O)O)c(C)n2C(=O)c1ccc(Cl)cc1 [indomethacin, reference compound] was tested, and the “inhibition of paw edema at 6 h” value was 67±8%.
